Source: PubChem BioAssay (NCI)
Values joined by “and” are separate entries in the source; they are usually repeats but may differ in a detail not shown here. Identical values can stand only once.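 Cultured in 96-well plates, cells were exposed to test compound for 48 hours across five concentrations. GI50 is the concentration that inhibits growth by half. At the TGI there is no net growth.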

What was measured:
Assay in all cases: NCI tumour cell line growth inhibition, 48 h
[1] = system: NCI-H23 lung
[2] = system: NCI-H460 lung
[3] = system: NCI-H522 lung
[4] = system: NCI/ADR-RES ovarian
[5] = system: OVCAR-3 ovarian
[6] = system: OVCAR-4 ovarian
[7] = system: OVCAR-5 ovarian
[8] = system: OVCAR-8 ovarian
[9] = system: PC-3 prostate
[10] = system: RPMI-8226 leukemia
[11] = system: RXF 393 renal
[12] = system: SF-268 CNS
[13] = system: SF-295 CNS
[14] = system: SF-539 CNS
[15] = system: SK-MEL-2 melanoma
[16] = system: SK-MEL-28 melanoma
[17] = system: SK-MEL-5 melanoma
[18] = system: SK-OV-3 ovarian
[19] = system: SN12C renal
[20] = system: SNB-19 CNS
[21] = system: SNB-75 CNS
[22] = system: SR leukemia
[23] = system: SW-620 colon
[24] = system: T-47D breast
[25] = system: TK-10 renal
[26] = system: U251 CNS
[27] = system: UACC-257 melanoma
[28] = system: UACC-62 melanoma
[29] = system: UO-31 renal

In the case of `Cc1cc(Nc2ncnc3ccc(NC4=NC(C)(C)CO4)cc23)ccc1Oc1ccn2ncnc2c1`, the GI50 [1] is reported as 17 µM and > 10 µM, the TGI [1] is reported as 41.7 µM and > 10 µM and the GI50 [2] is reported as 17.9 µM and > 10 µM. For the same molecule, the TGI [2] was 39.6 µM and > 10 µM, the GI50 [3] was 2.44 µM and > 10 µM and the TGI [3] was 21.1 µM and > 10 µM. For the same molecule, the GI50 [4] was 17.1 µM and > 10 µM, the TGI [4] was 89.2 µM and > 10 µM and the GI50 [5] was 14.4 µM and > 10 µM. The TGI [5] was 52.6 µM and > 10 µM, the GI50 [6] was 15.1 µM and > 10 µM and the TGI [6] was 99 µM and > 10 µM. The GI50 [7] was 17.1 µM and > 10 µM, the TGI [7] was 62.9 µM and > 10 µM and the GI50 [8] was 8.75 µM and > 10 µM. For the same molecule, the TGI [8] was 55.1 µM and > 10 µM, the GI50 [9] was 15.7 µM and > 10 µM and the TGI [9] was 66.6 µM and > 10 µM. For the same molecule, the GI50 [10] was 9.87 µM and 6.82 µM, the TGI [10] was 33.5 µM and > 10 µM and the GI50 [11] was 12.7 µM and > 10 µM. The TGI [11] was 28.9 µM and > 10 µM, the GI50 [12] was 18.9 µM and > 10 µM and the TGI [12] was > 91.9 µM. The GI50 [13] was 14.9 µM and > 10 µM, the TGI [13] was 38.3 µM and > 10 µM and the GI50 [14] was 15.6 µM and > 10 µM. The TGI [14] was 31.2 µM and > 10 µM, the GI50 [15] was 20.1 µM and > 10 µM and the TGI [15] was 46.4 µM and > 10 µM. For the same molecule, the GI50 [16] was 13.2 µM and > 10 µM, the TGI [16] was 29.3 µM and > 10 µM and the GI50 [17] was 9.59 µM and 9.83 µM. For the same molecule, the TGI [17] was 22.3 µM and > 10 µM, the GI50 [18] was 0.0526 µM and the TGI [18] was > 94.1 µM. For the same molecule, the GI50 [19] was 11 µM and > 10 µM, the TGI [19] was 65.5 µM and > 10 µM and the GI50 [20] was 21.9 µM and > 10 µM. The TGI [20] was > 100 µM, the GI50 [21] was 15.6 µM and > 10 µM and the TGI [21] was 51.9 µM and > 10 µM. The GI50 [22] was 14.7 µM and > 10 µM, the TGI [22] was 43.8 µM and > 10 µM and the GI50 [23] was 20.5 µM and > 10 µM. For the same molecule, the TGI [23] was 41.2 µM and > 10 µM, the GI50 [24] was 1.33 µM and 1.75 µM and the TGI [24] was 12.8 µM and > 10 µM. The GI50 [25] was 3.84 µM and 2.76 µM, the TGI [25] was 25.1 µM and > 10 µM and the GI50 [26] was 13.4 µM and > 10 µM. For the same molecule, the TGI [26] was 35.7 µM and > 10 µM, the GI50 [27] was 16.9 µM and > 10 µM and the TGI [27] was 33.1 µM and > 10 µM. The GI50 [28] was 12.5 µM and > 10 µM, the TGI [28] was 30.3 µM and > 10 µM and the GI50 [29] was 6.29 µM and > 10 µM. The TGI [29] was 84.4 µM and > 10 µM.
